According to BindingDB's records for doi:10.1124/jpet.102.036376 (University of Arkansas, 2002):

Legend:
[1] = target: Muscarinic acetylcholine receptor M3 (Rattus norvegicus, UniProt P08483)
[2] = target: T1, Muscarinic acetylcholine receptor M1 (Rattus norvegicus, UniProt P08482)
T1 sequence (P08482 whole entry): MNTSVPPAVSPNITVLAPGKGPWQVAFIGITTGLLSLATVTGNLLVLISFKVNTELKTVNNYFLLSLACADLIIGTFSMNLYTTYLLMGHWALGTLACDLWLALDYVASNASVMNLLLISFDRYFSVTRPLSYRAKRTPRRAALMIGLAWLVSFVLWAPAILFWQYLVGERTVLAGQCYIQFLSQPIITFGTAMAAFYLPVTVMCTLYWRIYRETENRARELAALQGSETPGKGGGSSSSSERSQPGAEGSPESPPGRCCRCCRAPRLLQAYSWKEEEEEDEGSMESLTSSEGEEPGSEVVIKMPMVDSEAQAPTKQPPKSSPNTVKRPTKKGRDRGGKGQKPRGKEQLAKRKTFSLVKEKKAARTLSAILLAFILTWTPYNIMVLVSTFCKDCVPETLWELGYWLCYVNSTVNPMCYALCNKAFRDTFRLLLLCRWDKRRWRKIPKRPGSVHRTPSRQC

[3] = target: T2, Muscarinic acetylcholine receptor M4 (Homo sapiens, UniProt P08173)
T2 sequence (P08173 whole entry): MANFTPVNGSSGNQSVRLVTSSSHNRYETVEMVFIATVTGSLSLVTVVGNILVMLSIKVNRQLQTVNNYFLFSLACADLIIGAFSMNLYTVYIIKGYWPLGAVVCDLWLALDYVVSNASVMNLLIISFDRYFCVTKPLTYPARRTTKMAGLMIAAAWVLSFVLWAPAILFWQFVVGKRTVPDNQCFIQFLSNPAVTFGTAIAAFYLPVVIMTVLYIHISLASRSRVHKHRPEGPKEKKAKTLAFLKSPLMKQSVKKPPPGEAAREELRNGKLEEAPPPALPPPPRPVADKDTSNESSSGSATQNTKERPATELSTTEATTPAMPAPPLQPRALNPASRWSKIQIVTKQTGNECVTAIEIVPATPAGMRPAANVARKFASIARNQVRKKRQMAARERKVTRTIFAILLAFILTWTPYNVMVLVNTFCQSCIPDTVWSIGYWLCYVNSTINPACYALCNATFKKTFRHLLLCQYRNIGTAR

[4] = target: T3, Muscarinic acetylcholine receptor M5 (Homo sapiens, UniProt P08912)
T3 sequence (P08912 whole entry): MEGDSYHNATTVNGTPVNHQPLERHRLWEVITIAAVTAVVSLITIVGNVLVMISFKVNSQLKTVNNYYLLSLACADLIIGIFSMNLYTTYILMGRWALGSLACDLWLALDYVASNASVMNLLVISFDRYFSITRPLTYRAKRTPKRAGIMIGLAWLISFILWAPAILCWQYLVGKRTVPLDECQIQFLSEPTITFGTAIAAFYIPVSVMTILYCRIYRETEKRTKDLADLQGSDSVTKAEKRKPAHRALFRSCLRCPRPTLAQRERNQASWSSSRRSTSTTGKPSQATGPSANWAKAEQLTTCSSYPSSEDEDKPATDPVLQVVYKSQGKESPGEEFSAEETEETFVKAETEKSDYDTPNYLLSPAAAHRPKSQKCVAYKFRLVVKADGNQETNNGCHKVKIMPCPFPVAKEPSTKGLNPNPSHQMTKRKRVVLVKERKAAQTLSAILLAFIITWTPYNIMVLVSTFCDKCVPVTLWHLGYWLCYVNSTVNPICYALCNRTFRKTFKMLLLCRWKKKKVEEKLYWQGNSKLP

Measured: Ki

Muscarinic acetylcholine receptor M3, sequence (P08483 whole entry): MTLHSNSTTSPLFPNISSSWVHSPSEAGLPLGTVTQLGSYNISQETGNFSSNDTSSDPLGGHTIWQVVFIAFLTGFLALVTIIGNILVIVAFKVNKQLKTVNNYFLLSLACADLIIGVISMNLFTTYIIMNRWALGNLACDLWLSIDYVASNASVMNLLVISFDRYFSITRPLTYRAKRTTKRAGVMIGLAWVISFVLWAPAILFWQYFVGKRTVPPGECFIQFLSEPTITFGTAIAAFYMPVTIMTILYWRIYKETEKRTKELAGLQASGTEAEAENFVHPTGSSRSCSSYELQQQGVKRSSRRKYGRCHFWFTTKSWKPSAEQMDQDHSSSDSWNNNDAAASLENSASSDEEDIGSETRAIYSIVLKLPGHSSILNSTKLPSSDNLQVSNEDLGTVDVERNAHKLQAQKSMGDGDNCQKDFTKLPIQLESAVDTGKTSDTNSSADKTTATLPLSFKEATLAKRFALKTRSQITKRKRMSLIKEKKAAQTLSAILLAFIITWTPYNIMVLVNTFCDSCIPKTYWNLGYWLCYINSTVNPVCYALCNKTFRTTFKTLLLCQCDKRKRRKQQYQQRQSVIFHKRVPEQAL

CC(CCC(=O)NCCS(=O)(=O)O)C1CCC2C3CCC4CC(O)CCC4(C)C3CCC12C (stereo unspecified) [NSC_10595]
> 10 µM: [1] | [2]

CC(CCC(=O)NCC(=O)O)C1CCC2C3CCC4CC(O)CCC4(C)C3CCC12C (stereo unspecified) [CAS_115245]
> 10 µM: all assays above
